Columns and labels:
[1] = design: species or system Cynomolgus Monkeys; settings: cynomolgus monkey, in vivo, po, 10 mg/kg
Experimental: A cross-over study design consisting of two groups with two animals per group was conducted to examine the pharmacokinetic properties of compound I-1 of the present disclosure.
Compound I-1 and AHU377 were administered to each group as follows: compound I-1 on Day 0 followed by AHU377 on Day 2 (Group 1), AHU377 on Day 0 followed by compound I-1 on Day 2 (Group 2). Each animal received a single 10 mg/kg (5 ml/kg) oral gavage dose of the specified study drug on the specified day. The animals were 2.5 to 3.5 years of age and weighed between 3.1 and 4.3 kg at the beginning of the study. Both compounds were formulated in 0.5% methylcellulose (400 cp) and 0.1% Tween 80 (w,v) in water. Blood samples for pharmacokinetics analysis were collected at t=0, 0.25, 0.5, 1, 2, 4, 8, 24 and 48 hours post dose on Day 0 and Day 2. Plasma was prepared by collecting whole blood samples into tubes containing K2EDTA and NaF (final concentrations: ˜1 mg/mL (K2EDTA) and ˜2 mg/mL (NaF)). These tubes were kept in an ice bath prior to centrifugation at approximately 2,000 rcf for 10 minutes at approximately 5° C. To each resultant plasma sample (target volume 200 μL), 4 μL of 50% phosphoric acid (v/v) was added.
[^13C4]-LBQ657 was added as an internal standard to the pharmacokinetic (PK) samples and calibration standards prior to analysis by LC-MS/MS. The LC-MS system consisted of an API6500+ mass spectrometer coupled to an Agilent 1290 HPLC system equipped with a CTC Pal autosampler. The mass spectrometer was operated in the positive ion mode.

[2] = Hygroscopicity, weight gain at 90% RH; assay type: physicochemical; settings: after exposure to 90% RH
Text: The weight gain of compound I-1 after exposure to 90% RH (relatively humidity) was 0.34%, while that of AHU377 under the same conditions was 3.4%. […] On the other hand, AHU377 is a wax-like solid, which needs to be properly processed before further pharmaceutical processing such as weighing, dispensing and filling.

For `CCOC(=O)[C@H](C)C[C@@H](Cc1ccc(-c2ccccc2)cc1)NC(=O)CCC(=O)N[C@@H](CC(C)C)C(=O)O` [Compound I-1, (4-(((2S,4R)-1-([1,1′-biphenyl]-4-yl)-5-ethoxy-4-methyl-5-oxopentan-2-yl)amino)-4-oxobutanoyl)-L-leucine], which “compound I-1 concentrations in plasma” value [1] is on record?
The value was “below the lower limit of quantitation”.

What about the tolerability [1] of the same compound?
Its tolerability is “well tolerated”.

What about the “relative bioavailability compared to AHU377 based on AUC values” ([1]; male) of the same compound?
Its value is 72%.

And the “relative bioavailability compared to AHU377 based on Cmax values” ([1]; male)?
Its value is 30%.

And the “weight gain (hygroscopicity)” value [2]?
Its value is 0.34%.
